Where “and” joins values, the source holds several entries; their conditions need not be identical. Equal values may be shown once.
Settings: Crystal, Calculated from knudsen effusion weight loss

CCOC(=O)c1cc2ccccc2[nH]1 [ethyl 1H-indole-2-carboxylate]
Settings	vapor or sublimation pressure
326.18 K	7.9e-05 kPa and 7.4e-05 kPa
328.21 K	0.000101 kPa and 9.8e-05 kPa and 9.1e-05 kPa
330.12 K	0.000123 kPa and 0.000122 kPa and 0.000126 kPa
332.18 K	0.000155 kPa and 0.000154 kPa and 0.000157 kPa
334.22 K	0.000202 kPa and 0.000196 kPa and 0.000203 kPa
336.12 K	0.000256 kPa and 0.000249 kPa and 0.000248 kPa
338.18 K	0.000312 kPa and 0.000322 kPa
340.21 K	0.000399 kPa and 0.000394 kPa and 0.00041 kPa
342.12 K	0.000501 kPa and 0.000503 kPa and 0.000504 kPa
344.16 K	0.000627 kPa and 0.000614 kPa and 0.000659 kPa
346.18 K	0.000808 kPa and 0.000835 kPa and 0.000768 kPa
348.11 K	0.000988 kPa and 0.000995 kPa and 0.000981 kPa

COC(=O)c1c[nH]c2ccccc12 [methyl 1H-indole-3-carboxylate]
Settings	vapor or sublimation pressure
353.17 K	0.000108 kPa and 9.8e-05 kPa and 9.7e-05 kPa
355.12 K	0.00013 kPa and 0.000127 kPa and 0.000122 kPa
357.1 K	0.000154 kPa and 0.000153 kPa and 0.000148 kPa
359.16 K	0.000179 kPa and 0.000181 kPa and 0.000189 kPa
361.11 K	0.000232 kPa and 0.000226 kPa and 0.000234 kPa
363.1 K	0.000283 kPa and 0.000285 kPa and 0.000284 kPa
365.16 K	0.000351 kPa and 0.000347 kPa and 0.000371 kPa
367.12 K	0.000439 kPa and 0.000427 kPa and 0.000452 kPa
369.1 K	0.000528 kPa and 0.000531 kPa and 0.000514 kPa
371.16 K	0.000637 kPa and 0.000644 kPa and 0.000707 kPa
373.09 K	0.000799 kPa and 0.000822 kPa and 0.000792 kPa
375.09 K	0.00096 kPa and 0.000992 kPa and 0.000977 kPa

Source: the NIST ThermoML archive (doi:10.1016/j.jct.2016.01.006)
